Source: patent US20160082133A1, “CHEMICAL EXCHANGE SATURATION TRANSFER (CEST) BASED MRI USING REPORTER GENES AND SUBSTRATES AND METHODS THEREOF” (The Johns Hopkins University, priority 2013, published 2016)

Key:
[1] = target: T1, Escherichia coli CDase (CodA) (Escherichia coli, UniProt P25524); assay: Deamination by crude recombinant CDase extracts measured using CEST MRI; format: biochemical; conditions: 20 mM substrate, crude CDase extract, 37° C.
T1 construct: 6xHis (C); made in house; host or cells: E. coli BL21 (DE3), crude protein extract
Procedure: FIGS. 9A-9D show monitoring of recombinant CDase activity using CEST MRI. (FIG. 9A) Western blot using an anti-six-histidine-tag antibody of protein extracts from E. coli engineered to express CD or HSV1-tk (TK). (FIG. 9B) Deamination of cytosine and 5FC (20 mM) by crude CDase extracts measured using CEST MRI at 37° C. and 9.4 T. Conversion was quantified as (1−MTR^tasym/MTR^0asym)×100%, where MTR^tasym/MTR^0asym are the contrasts at time t, and at t=0, respectively. (FIG. 9C, D) maps and statistical analysis (two tailed unpaired students t-test; n=3) of 20 mM (FIG. 9C) cytosine and (FIG. 9D) 5 FC incubated with CDase (0.6 ug crude protein) for 24 hours.
The gene encoding the E. coli Cytosine Deaminase (CDase, CodA) was obtained from the American Type Culture Collection (ATCC Cat. 4099). […] Both genes were sub-cloned into the pEXP5-CT expression vector (Invitrogen) in a reading frame with a C-terminal six-histidine tag under a T7 promoter. […] The recombinant proteins were expressed after induction in Magic Media™ (Invitrogen), and both could be detected with Western blot using an anti-6-histidine tag antibody. […]
Data processing was performed using custom-written scripts in MATLAB (Mathworks, Waltham, Mass.). CEST spectra were calculated from the mean of an ROI placed over each sample after B0 correction of the contrast on a per voxel basis. […]

HEK293FT cells [2] = assay: 19F NMR detection of conversion of 5FC to 5FU, HEK293FT cells; format: cell-based, Human; set-up: key: (−): no 5FU was detected; conditions: 24 hours, 10 mM 5FC
Procedure: (§1) For each cell type, the same number of transduced (CD) or non-transduced (wild type, WT) cells were plated into 6-well plates (5.6×10^6 HEK293FT cells, 10^6 9 L cells, and 1.4×10^6 C17.2 cells, respectively). Approximately 6 hours later, fresh culture medium containing 7 mM cytosine or 10 mM 5FC was added to the cells. Fifty microliters of the culture media were collected at different time points up to 24 hours for HEK293FT cells (i.e. 0.5, 4, 6, and 24 hours), and up to 48 hours for the other two cell lines (i.e., 0.5, 4, 6, 24, and 48 hours). These samples were then transferred into capillaries and measured for CEST signal at 2 ppm for cytosine and 2.4 ppm for 5FC.
Studies were performed using a 500 MHz Bruker NMR spectrometer. ^19F NMR spectra of the enzymatic mixture or aqueous solutions of 10 mM 5FC and 5FU standards (FIG. 30 a and b) were acquired using a single-pulse sequence with a flip angle of 90°, TR=5 sec, and NA=32, carried out at 25° C. with the spectra centered at the resonance frequency of 5FC. […] For the cell culture media incubated with 10 mM 5FC for 24 and 48 hours for all three cell types, the ^19F NMR spectrum was measured using the same protocol, except the number of averages was changed to 64 to improve SNR. 5FU peaks were only detected for HEK293FT cells after 24-hour and for 9L cells after 48 hours (FIG. 30 c,d). […]

9L cells [3] = assay: 19F NMR detection of conversion of 5FC to 5FU, 9L cells; format: cell-based, Rat; set-up: key: (−): no 5FU was detected; conditions: 10 mM 5FC
Procedure: as §1
(§2) Studies were performed using a 500 MHz Bruker NMR spectrometer. ^19F NMR spectra of the enzymatic mixture or aqueous solutions of 10 mM 5FC and 5FU standards (FIG. 30 a and b) were acquired using a single-pulse sequence with a flip angle of 90°, TR=5 sec, and NA=32, carried out at 25° C. with the spectra centered at the resonance frequency of 5FC. NMR data were processed and plotted using Topspin (Bruker, M A). For the cell culture media incubated with 10 mM 5FC for 24 and 48 hours for all three cell types, the ^19F NMR spectrum was measured using the same protocol, except the number of averages was changed to 64 to improve SNR. 5FU peaks were only detected for HEK293FT cells after 24-hour and for 9L cells after 48 hours (FIG. 30 c,d). The complete results of the conversion detected using F NMR are listed in Table 1, as quantified by a conversion rate=peak area(5FU)/(peak area(5FU)+peak area(5FC)).

C17.2 cells = assay: 19F NMR detection of conversion of 5FC to 5FU, C17.2 cells; format: cell-based, mouse; set-up: key: (−): no 5FU was detected; conditions: 10 mM 5FC
Procedure: as §1, §2

HEK293FT cells [4] = assay: CEST MRI of culture media, CDase activity in HEK293FT cells; format: cell-based, Human; conditions: HEK-293FT; 7 mM cytosine or 10 mM 5FC
Excerpt: (§3) All MR images were acquired with a 9.4T Bruker Avance system equipped with a 15 mm sawtooth RF coil. A modified RARE sequence (TR=6.0 sec, effective TE=43.2 ms, RARE factor=16, slice thickness=0.7 mm, FOV=14×14 mm, matrix size=128×64, resolution=0.11×0.22 mm^2, and NA=2) including a magnetization transfer (MT) module (one CW pulse, B=[…] (150 Hz), 3 sec) was used to acquire CEST-weighted images from −6 ppm to 6 ppm (step=0.2 ppm) around the water resonance (0 ppm). The absolute water resonant frequency shift was measured using a Water Saturation Shift Reference (WASSR) (Kim, M. et al. Magnetic Resonance in Medicine 2009, 61, 1441) method modified (Liu, G. et al. Contrast Media Mol Imaging 2010, 5, 162) with Lorentzian analysis. […]
(§4) Data processing was performed using custom-written scripts in MATLAB (Mathworks, Waltham, Mass.). CEST spectra were calculated from the mean of an ROI placed over each sample after B0 correction of the contrast on a per voxel basis. The CEST signal was quantified using MTRasym at specific offsets of interest (i.e., &ω=+2 ppm for cytosine or +2.4 ppm for 5FC) using the definition: MTRasym=(S^−˜ω−S^+″ω)/S0, where and s[−˜ω, +Aω] is the water signal intensity in the presence of a saturation pulse at offsets ±Aω, and S0 is water signal intensity in the absence of a saturation pulse. […]

9L cells [5] = assay: CEST MRI of culture media, CDase activity in 9L cells; format: cell-based, Rat; conditions: CDase-expressing 9L cells, 48 h incubation
Excerpt: as §3, §4

HEK293FT = assay: Cell proliferation assay, HEK293FT; format: cell-based, Human; conditions: CD-transduced HEK293FT, 10 mM 5FC, 40 hours
Procedure: (§5) Both wild type- and CD-transduced cells were plated in 96-well cell culture plates to reach a sufficient cell number before 5FC treatment. Then media were replaced with media containing 10 mM 5FC. After 40 hours of incubation, cell viability was determined using a […] assay kit (Invitrogen).

9L = assay: Cell proliferation assay, 9L; format: cell-based, Rat; conditions: CD-transduced 9L, 10 mM 5FC, 40 hours
Procedure: as §5

9L^HSV1-tk cells = assay: In vitro uptake assay; format: cell-based, rat; conditions: 1 and 3 h of incubation, 1 μCi
Procedure: One million cells (9L^wt and 9L^HSV1-tk in triplicates) were incubated in […] medium containing 1 μCi [^125I]FIAU at 37° C. for 1 and 3 h. Cells were pelleted by centrifugation and washed 3 times with cold PBS. Gamma counter was used to monitor the radioactivity of the incubating medium and the incubated cells. [^125I]FIAU uptake was determined as the relative radioactivity (in percentage) of the cells to that of the incubating [^125I]FIAU medium (without cells).

HSV1-TK = target: T2, HSV1-TK (Human herpesvirus 1, UniProt P0DTH5); assay: SPECT/CT imaging of HSV1-TK expression; format: in vivo, mice; conditions: 3 h after iv injection
T2 construct: V5; expressed in transfected cells; host or cells: 9L rat glioma cells transfected with pcDNA3.1-HSV1-tk, single G418-selected clone, implanted in NOD-SCID mouse brain
Procedure: An X-SPECT small-animal SPECT/CT system (Gamma Medica-Ideas) was used for image acquisition as previously described (Nimmagadda et al., J. Nucl. Med. 2009, 50, 1124). Briefly, seven days after cell implantation, the mice were injected iv with 50.3 MBq (1.36 mCi) of ^[125I]FIAU. SPECT data were acquired 3 h after radiotracer injection, and the obtained images were coregistered with the corresponding 512 slice CT images. Fused SPECT/CT transaxial sections of 1 mm thickness were generated using Amira 5.2.0 software (Visage Imaging Inc.) showing the SPECT signal obtained from the brain.

[6] = Exchange rate estimation by QUEST method; format: physicochemical; conditions: pH 7.4, 37° C.; cytosine 2 ppm, 5FC 2.4 ppm
Procedure: The exchange rate of exchangeable protons with a frequency of 2 ppm for cytosine and 2.4 ppm for 5FC at pH=7.4 was measured using the modified Quantifying Exchange using Saturation Time (QUEST) method (McMahon, M. T. et al. Magn Reson Med 2006, 55, 836). In brief, the CEST contrast for samples containing 20 mM cytosine or 5FC (40 mM of amine protons) at pH 7.4 was measured with saturation delays of 0.5, 1, 1.5, 2, 3, 5, and 9.5 sec, using a saturation field strength of 5.9 μT (300 Hz) and a repetition time (TR) set to 10 sec, using the RARE imaging sequence described above. The calculated MTRasym values were then fit using numerical solutions to the Bloch-McConnel equations with an exchange rate (kex). The water T1w and T2w were experimentally determined as approximately 4 sec and 1.6 sec, respectively, using the saturation recovery spin echo method and the CPMG multi-echo spin echo sequence, respectively. The fixed model parameters were water solute R1s=0.71 Hz and solute R2s=39 Hz.

Dm-dNK = target: T3, Dm-dNK (Drosophila melanogaster, UniProt Q9XZT6); assay: Fluorescence of cell lysates after incubation with pyrrolo-dC; format: cell-based, rat; conditions: 2 mM, 4 hours
T3 construct: expressed in transfected cells; host or cells: 9L rat glioma cells transfected with a pcDNA vector
Procedure: (§6) Pyrrolo-dC was dissolved in 10 mM PBS at 20 mM concentration. CEST MRI experiments were performed on an 11.7T Bruker Avance system as previously described (G. Liu et al., Contrast Media Mol Imaging 5, 162 (2010)). A modified RARE (TR/TE=6000/9.4 ms) including a magnetization transfer module (B1=4.7 μT/4000 ms) was used to acquire CEST weighted images. The absolute water resonant frequency shift was measured using a modified WASSR method, with the same parameters as in CEST imaging except TR=1.5 sec and saturation pulse of B1=0.5 μT/250 ms. Mean CEST-spectra were derived from a ROI for each sample, after B0 correction for each voxel using MatLab. MTR asymmetry (MTRasym)=100×(S^−Δω−S^+Δω/S0 was computed at different offsets Δω. 9L rat glioma, engineered to express Drosophila melanogaster 2′-deoxynucleoside kinase (Dm-dNK; 9L^Dm-dNK) and control, non-expressing cells (9L^wt), 5×10^6 cells per group, were incubated for 4 hours at cell-culture medium containing 2 mM pyrrolo-dC. Then, the cells were washed with PBS, lysed and fluorescence was measured in triplicates using a plate reader (lex355 nm/lem460 nm).

[7] = CEST MRI of pyrrolo-dC in PBS; format: physicochemical; conditions: 20 mM in PBS, 5.8 ppm, 11.7T
Procedure: as §6

T1 sequence (P25524 whole entry): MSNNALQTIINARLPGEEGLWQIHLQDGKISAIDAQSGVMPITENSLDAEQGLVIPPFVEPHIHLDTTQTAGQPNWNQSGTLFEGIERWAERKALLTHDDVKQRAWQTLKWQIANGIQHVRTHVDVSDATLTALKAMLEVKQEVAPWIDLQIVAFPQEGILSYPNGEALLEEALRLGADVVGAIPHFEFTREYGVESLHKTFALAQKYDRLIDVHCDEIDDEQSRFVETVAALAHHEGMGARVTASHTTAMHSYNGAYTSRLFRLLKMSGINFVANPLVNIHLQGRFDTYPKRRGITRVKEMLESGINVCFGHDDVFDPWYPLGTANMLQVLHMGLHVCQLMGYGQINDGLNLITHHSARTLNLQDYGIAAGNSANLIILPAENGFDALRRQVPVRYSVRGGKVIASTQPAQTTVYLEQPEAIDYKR
T3 sequence (Q9XZT6 whole entry): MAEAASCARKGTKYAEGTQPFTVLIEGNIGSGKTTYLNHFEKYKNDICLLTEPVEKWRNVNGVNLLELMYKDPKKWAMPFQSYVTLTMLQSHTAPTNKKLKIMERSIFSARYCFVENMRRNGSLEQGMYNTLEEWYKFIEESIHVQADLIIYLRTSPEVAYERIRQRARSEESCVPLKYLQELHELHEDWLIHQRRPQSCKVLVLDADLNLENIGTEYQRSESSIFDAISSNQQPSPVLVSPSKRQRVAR
T2 sequence (P0DTH5 whole entry): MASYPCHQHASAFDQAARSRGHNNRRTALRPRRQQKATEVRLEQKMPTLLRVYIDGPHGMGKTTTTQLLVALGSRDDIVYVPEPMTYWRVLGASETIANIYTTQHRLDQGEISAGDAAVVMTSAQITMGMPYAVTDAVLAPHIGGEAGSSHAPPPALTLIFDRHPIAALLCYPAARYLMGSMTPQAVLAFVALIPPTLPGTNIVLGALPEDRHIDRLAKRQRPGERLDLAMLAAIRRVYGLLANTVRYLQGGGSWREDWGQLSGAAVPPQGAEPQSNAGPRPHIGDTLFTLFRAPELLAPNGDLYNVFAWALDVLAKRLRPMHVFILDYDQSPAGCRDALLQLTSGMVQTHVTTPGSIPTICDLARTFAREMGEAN

## Nc1nc(=O)[nH]cc1F [5FC, 5-fluorocytosine]
[1]
  conversion by recombinant CDase after 24 h: not the case
HEK293FT cells [2]; HEK293FT CD
  19F NMR conversion of 5FC to 5FU: 38.9%
HEK293FT cells [2]; HEK293FT WT
  19F NMR conversion of 5FC to 5FU: (−)
9L cells [3]; 9L CD, 24 hours
  19F NMR conversion of 5FC to 5FU: (−)
9L cells [3]; 9L CD, 48 hours
  19F NMR conversion of 5FC to 5FU: 8.5%
9L cells [3]; 9L WT, 24 hours
  19F NMR conversion of 5FC to 5FU: (−)
9L cells [3]; 9L WT, 48 hours
  19F NMR conversion of 5FC to 5FU: (−)
C17.2 cells; C17.2 CD, 24 hours
  19F NMR conversion of 5FC to 5FU: (−)
C17.2 cells; C17.2 CD, 48 hours
  19F NMR conversion of 5FC to 5FU: (−)
C17.2 cells; C17.2 WT, 24 hours
  19F NMR conversion of 5FC to 5FU: (−)
C17.2 cells; C17.2 WT, 48 hours
  19F NMR conversion of 5FC to 5FU: (−)
HEK293FT cells [4]
  incubation time at which a significant difference in MTRasym between transduced and nontransduced cells was observed: 24 h
9L cells [5]
  relative change in MTRasym: 12%
HEK293FT
  number of viable cells after 5FC treatment: considerable decrease in the number of viable cells
9L
  number of viable cells after 5FC treatment: considerable decrease in the number of viable cells

## O=c1[nH]c(=O)n([C@@H]2O[C@H](CO)[C@@H](O)[C@@H]2F)cc1[125I] [[^125I]FIAU]
9L^HSV1-tk cells
  uptake in 9L^HSV1-tk cells compared to 9L^wt cells: significant accumulation
HSV1-TK
  accumulation in tumors by SPECT/CT: only at the ^9LHSV1-tk tumor

## Nc1cc[nH]c(=O)n1 [cytosine]
[6]
  exchange rate (kex) of the amine protons, QUEST: 8.1×10^2 Hz
[1]
  conversion by recombinant CDase after 24 h: nearly complete
HEK293FT cells [4]
  incubation time at which a significant difference in MTRasym between transduced and nontransduced cells was observed: 4 h
9L cells [5]
  relative change in MTRasym: 50%

## Cc1cc2cn([C@H]3C[C@H](O)[C@@H](CO)O3)c(=O)nc2[nH]1 [pyrrolo-dC, Pyrrolo-2′-deoxycytidine]
Dm-dNK
  fluorescence of lysate of incubated 9L^Dm-dNK cells: high fluorescence level
  fluorescence of lysate of incubated 9L^wt cells: no fluorescence was detected
[7]
  CEST contrast (MTRasym maps): high CEST contrast
